From paper PMC3914206

Legend:
Assay in all cases: KiNativ chemical proteomics profiling in HeLa and PC3 cell lysates
Type in all cases: binding
[1] = molecular target: T1, selected panels of kinases in HeLa and PC3 cell lysates (Homo sapiens, UniProt P46734); conditions: 10 uM, peptide DVkPSNVLINK, labeling site Lys2
T1 construct: endogenous in cells; host or cells: HeLa and PC3 cell lysates
T1 sequence (P46734 1-347): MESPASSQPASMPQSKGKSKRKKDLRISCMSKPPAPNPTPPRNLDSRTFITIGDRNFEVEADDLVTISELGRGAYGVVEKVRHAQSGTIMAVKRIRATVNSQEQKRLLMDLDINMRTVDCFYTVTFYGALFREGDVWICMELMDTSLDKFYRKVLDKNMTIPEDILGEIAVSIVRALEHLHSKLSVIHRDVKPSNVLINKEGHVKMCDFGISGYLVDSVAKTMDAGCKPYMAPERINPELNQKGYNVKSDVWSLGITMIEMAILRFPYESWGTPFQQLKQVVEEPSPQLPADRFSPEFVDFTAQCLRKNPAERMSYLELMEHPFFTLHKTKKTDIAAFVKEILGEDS

[2] = molecular target: T2, selected panels of kinases in HeLa and PC3 cell lysates (Homo sapiens, UniProt Q13418); conditions: 10 uM
T2 construct: endogenous in cells; host or cells: HeLa and PC3 cell lysates
T2 sequence (Q13418 1-452): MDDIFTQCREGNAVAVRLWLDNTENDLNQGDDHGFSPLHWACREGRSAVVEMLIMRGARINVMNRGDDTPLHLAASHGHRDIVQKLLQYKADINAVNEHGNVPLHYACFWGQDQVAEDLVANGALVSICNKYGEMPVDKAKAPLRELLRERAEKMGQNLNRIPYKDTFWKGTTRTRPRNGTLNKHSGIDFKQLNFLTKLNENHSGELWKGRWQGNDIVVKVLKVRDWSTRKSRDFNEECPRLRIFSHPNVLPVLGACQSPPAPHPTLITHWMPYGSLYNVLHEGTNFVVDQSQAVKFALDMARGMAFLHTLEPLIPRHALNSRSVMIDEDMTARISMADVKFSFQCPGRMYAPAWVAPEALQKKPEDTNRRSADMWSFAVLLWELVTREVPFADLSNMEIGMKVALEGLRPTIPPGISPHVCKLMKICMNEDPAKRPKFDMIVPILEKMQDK

[3] = molecular target: T3, selected panels of kinases in HeLa and PC3 cell lysates (Homo sapiens, UniProt P00533); conditions: 10 uM, proteome PC3
T3 construct: endogenous in cells; host or cells: HeLa and PC3 cell lysates
T3 sequence (P00533 25-1210): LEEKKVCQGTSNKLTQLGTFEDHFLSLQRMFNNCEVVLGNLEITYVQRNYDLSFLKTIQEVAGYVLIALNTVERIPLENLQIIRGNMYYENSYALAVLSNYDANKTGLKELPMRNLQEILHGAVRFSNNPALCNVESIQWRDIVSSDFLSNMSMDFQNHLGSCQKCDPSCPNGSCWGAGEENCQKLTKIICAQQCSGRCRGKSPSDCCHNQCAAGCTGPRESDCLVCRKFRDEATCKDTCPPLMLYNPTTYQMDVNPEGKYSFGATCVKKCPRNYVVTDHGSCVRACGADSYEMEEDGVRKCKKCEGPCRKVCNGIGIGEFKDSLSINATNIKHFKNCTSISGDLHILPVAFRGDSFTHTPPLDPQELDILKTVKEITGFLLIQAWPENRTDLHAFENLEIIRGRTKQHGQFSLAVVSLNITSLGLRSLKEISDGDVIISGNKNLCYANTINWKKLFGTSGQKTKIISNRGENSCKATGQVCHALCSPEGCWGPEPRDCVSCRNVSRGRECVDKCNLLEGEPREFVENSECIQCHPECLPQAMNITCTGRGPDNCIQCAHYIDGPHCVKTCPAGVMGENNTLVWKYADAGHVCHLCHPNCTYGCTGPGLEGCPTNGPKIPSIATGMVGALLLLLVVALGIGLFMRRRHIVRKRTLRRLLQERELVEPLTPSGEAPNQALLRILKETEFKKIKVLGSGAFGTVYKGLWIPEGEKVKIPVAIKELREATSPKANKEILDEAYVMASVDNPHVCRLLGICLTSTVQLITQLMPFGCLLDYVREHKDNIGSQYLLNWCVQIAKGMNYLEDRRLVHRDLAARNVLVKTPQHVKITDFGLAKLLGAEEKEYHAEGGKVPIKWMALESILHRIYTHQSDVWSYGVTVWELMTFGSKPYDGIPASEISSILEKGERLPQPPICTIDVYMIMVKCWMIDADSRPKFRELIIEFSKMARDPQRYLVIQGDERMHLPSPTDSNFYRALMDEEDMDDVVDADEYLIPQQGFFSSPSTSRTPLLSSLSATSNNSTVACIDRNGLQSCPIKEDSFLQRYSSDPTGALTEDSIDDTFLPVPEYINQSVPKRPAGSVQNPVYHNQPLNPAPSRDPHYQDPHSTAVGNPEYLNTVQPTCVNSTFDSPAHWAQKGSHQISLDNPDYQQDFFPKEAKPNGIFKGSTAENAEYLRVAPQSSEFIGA

[4] = molecular target: T4, selected panels of kinases in HeLa and PC3 cell lysates (Homo sapiens, UniProt P49760); conditions: 10 uM; proteome PC3; peptide LTHTDLk[…]; labeling site Lys2
T4 construct: endogenous in cells; host or cells: HeLa and PC3 cell lysates
T4 sequence (P49760 whole entry): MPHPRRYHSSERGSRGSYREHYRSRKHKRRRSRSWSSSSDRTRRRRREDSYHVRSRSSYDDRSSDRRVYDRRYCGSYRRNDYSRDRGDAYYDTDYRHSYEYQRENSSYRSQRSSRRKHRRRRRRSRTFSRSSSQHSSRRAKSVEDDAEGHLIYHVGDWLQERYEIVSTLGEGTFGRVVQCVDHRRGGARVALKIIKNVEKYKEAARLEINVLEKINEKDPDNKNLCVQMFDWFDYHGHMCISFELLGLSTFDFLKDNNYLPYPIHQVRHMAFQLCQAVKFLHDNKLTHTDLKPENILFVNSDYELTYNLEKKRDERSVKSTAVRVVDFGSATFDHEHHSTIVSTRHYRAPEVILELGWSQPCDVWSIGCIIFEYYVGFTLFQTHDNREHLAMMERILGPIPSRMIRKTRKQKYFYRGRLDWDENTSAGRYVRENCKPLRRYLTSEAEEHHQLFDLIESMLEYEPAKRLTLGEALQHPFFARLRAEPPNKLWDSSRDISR

[5] = molecular target: T5, selected panels of kinases in HeLa and PC3 cell lysates (Homo sapiens, UniProt Q96SB4); conditions: 10 uM; SRPK1; peptide IIHTDIk[…]; proteome PC3; labeling site Lys2
T5 construct: endogenous in cells; host or cells: HeLa and PC3 cell lysates
T5 sequence (Q96SB4 whole entry): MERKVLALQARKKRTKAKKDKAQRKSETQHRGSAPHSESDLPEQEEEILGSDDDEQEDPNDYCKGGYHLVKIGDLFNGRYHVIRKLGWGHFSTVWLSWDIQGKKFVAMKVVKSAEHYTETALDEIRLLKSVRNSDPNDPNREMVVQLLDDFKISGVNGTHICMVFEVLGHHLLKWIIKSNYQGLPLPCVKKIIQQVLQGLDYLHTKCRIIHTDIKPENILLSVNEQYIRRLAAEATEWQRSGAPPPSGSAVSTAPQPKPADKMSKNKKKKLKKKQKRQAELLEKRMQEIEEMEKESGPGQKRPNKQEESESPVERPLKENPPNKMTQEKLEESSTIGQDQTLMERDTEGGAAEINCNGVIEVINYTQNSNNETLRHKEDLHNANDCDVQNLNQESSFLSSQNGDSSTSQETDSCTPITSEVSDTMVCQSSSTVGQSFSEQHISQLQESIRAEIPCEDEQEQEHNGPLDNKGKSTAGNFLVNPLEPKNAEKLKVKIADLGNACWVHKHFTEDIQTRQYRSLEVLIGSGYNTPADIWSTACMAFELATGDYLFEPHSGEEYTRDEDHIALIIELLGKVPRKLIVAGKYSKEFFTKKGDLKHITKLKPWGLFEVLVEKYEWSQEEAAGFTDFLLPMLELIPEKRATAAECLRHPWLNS

[6] = molecular target: T6, selected panels of kinases in HeLa and PC3 cell lysates (Homo sapiens, UniProt Q96BR1); conditions: 10 uM; SGK3; peptide FYAVkVLQK; proteome HEL; labeling site Lys1
T6 construct: endogenous in cells; host or cells: HeLa and PC3 cell lysates
T6 sequence (Q96BR1 whole entry): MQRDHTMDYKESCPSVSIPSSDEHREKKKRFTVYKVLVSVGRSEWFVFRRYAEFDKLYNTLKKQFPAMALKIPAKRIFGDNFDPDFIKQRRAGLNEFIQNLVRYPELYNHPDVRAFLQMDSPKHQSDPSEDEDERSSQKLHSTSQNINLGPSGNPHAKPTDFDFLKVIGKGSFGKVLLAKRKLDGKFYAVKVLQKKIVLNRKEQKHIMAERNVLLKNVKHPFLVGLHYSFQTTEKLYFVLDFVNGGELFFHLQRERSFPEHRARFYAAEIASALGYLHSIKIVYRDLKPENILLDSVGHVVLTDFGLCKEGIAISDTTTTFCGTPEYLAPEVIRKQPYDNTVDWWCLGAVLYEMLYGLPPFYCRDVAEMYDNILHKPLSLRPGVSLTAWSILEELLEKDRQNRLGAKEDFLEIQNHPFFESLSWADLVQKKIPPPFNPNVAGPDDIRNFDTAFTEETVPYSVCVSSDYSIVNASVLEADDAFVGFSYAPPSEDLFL

[7] = molecular target: T7, selected panels of kinases in HeLa and PC3 cell lysates (Homo sapiens, UniProt Q13043); conditions: 10 uM, peptide […]k[…], labeling site Lys1
T7 construct: endogenous in cells; host or cells: HeLa and PC3 cell lysates
T7 sequence (Q13043 1-487): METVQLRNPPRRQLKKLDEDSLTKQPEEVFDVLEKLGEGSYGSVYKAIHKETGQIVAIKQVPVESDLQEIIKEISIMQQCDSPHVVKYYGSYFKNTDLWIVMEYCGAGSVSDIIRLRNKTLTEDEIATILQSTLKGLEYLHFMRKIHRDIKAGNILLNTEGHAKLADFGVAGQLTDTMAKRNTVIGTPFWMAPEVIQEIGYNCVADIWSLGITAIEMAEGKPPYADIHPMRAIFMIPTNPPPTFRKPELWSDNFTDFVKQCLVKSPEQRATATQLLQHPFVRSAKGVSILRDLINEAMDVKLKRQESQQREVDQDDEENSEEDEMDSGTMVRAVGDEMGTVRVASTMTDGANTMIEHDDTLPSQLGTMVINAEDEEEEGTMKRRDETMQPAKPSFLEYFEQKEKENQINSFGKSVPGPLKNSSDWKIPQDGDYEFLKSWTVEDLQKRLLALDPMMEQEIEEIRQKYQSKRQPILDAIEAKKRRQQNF

[8] = molecular target: T8, selected panels of kinases in HeLa and PC3 cell lysates (Homo sapiens, UniProt Q9NRH2); conditions: 10 uM; SNRK; peptide DLkPENVVFFEK; proteome PC3; labeling site Lys2
T8 construct: endogenous in cells; host or cells: HeLa and PC3 cell lysates
T8 sequence (Q9NRH2 whole entry): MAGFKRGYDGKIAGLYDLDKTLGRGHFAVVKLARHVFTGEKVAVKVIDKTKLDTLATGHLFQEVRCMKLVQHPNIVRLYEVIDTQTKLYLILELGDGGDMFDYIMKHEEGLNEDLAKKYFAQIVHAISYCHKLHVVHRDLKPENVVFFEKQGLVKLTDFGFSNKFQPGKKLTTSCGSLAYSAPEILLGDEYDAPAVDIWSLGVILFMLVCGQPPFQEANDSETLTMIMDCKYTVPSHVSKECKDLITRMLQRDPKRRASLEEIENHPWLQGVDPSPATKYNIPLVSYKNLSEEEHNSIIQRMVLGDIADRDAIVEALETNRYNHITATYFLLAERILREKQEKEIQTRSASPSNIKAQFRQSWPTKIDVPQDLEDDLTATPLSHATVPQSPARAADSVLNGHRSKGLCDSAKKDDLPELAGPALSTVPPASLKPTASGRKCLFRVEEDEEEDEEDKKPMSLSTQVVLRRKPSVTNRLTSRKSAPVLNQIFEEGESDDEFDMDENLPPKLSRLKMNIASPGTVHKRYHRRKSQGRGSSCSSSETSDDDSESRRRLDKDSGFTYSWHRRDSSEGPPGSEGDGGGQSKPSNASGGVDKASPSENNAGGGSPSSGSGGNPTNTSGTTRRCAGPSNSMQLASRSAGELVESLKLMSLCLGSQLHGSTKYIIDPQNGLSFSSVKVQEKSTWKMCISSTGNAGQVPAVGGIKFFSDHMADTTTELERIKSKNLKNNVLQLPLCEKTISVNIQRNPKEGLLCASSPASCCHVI

[9] = molecular target: T9, selected panels of kinases in HeLa and PC3 cell lysates (Homo sapiens, UniProt Q15831); conditions: 10 uM, peptide DIk[…], labeling site Lys2
T9 construct: endogenous in cells; host or cells: HeLa and PC3 cell lysates
T9 sequence (Q15831 1-433): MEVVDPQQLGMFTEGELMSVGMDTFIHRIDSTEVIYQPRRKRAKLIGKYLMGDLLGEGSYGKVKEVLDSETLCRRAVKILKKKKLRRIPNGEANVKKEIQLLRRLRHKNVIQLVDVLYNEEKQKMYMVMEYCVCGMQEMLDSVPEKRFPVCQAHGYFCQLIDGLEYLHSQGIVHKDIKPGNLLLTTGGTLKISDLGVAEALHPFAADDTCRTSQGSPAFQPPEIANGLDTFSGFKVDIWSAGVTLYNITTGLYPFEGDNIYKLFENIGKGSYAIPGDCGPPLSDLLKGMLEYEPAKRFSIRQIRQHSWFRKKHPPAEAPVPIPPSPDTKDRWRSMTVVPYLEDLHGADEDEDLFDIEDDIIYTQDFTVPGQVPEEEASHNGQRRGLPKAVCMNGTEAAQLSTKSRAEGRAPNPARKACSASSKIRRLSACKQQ

[10] = molecular target: T10, selected panels of kinases in HeLa and PC3 cell lysates (Homo sapiens, UniProt Q16539); conditions: 10 uM
T10 construct: endogenous in cells; host or cells: HeLa and PC3 cell lysates
T10 sequence (Q16539 whole entry): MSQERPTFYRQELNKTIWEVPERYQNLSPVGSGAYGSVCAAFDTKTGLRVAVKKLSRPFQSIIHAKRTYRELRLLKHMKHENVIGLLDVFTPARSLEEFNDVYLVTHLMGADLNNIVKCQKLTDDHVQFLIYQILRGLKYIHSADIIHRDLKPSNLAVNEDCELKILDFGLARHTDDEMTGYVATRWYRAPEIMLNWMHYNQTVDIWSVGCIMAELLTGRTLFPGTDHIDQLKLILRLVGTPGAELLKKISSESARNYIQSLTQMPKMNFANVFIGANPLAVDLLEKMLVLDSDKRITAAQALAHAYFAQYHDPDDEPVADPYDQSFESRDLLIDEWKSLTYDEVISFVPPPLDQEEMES

[11] = molecular target: T11, selected panels of kinases in HeLa and PC3 cell lysates (Homo sapiens, UniProt Q16512); conditions: 10 uM; PKN1; peptide GHFGk[…]; proteome HEL; labeling site Lys1
T11 construct: endogenous in cells; host or cells: HeLa and PC3 cell lysates
T11 sequence (Q16512 whole entry): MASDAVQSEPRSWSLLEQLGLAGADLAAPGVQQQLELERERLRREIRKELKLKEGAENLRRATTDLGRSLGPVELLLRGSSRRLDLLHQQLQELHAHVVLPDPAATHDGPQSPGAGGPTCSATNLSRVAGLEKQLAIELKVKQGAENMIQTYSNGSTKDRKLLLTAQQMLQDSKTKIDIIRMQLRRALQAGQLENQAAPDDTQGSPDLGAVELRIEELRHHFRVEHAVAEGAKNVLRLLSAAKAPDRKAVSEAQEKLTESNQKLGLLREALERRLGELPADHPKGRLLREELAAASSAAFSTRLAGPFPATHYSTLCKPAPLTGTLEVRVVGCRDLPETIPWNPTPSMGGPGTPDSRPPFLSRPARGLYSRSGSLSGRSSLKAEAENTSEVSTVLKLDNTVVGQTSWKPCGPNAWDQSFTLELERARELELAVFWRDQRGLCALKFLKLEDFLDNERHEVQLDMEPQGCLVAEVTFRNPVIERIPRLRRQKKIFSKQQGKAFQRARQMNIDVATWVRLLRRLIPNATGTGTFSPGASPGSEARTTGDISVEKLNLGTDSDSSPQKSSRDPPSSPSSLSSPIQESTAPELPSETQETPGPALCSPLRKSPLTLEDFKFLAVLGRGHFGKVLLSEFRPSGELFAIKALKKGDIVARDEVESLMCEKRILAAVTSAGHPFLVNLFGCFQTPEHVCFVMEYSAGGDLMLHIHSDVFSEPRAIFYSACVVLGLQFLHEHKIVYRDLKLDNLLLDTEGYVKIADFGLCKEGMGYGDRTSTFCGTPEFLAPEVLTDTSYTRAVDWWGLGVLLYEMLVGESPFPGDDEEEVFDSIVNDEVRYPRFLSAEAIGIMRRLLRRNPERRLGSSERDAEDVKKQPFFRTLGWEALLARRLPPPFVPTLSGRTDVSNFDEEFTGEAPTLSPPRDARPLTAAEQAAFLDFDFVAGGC

[12] = proteome HEL, peptide WQGNDIVVkVLK, labeling site Lys1
[13] = proteome PC3, peptide ISMADVkFSFQCPGR, labeling site Protein Kinase Domain
[14] = proteome PC3, peptide WQGNDIVVkVLK, labeling site Lys1
[15] = peptide IPVAIkELR, labeling site Lys1
[16] = peptide ITDFGLAkLLGAEEK, labeling site Activation Loop
[17] = peptide […]kVPIK, labeling site Activation Loop
[18] = proteome HEL, peptide DLk[…], labeling site Lys2
[19] = proteome HEL, peptide QELNkTIWEVPER, labeling site Other
[20] = proteome PC3, peptide DLk[…], labeling site Lys2
[21] = proteome PC3, peptide QELNkTIWEVPER, labeling site Other

Structure (SMILES)	% Inhibiton, MAP2K3 ([1]; proteome HEL)	% Inhibiton, MAP2K3 ([1]; proteome PC3)	% Inhibiton, ILK [2, 12]	% Inhibiton, ILK [2, 13]	% Inhibiton, ILK [2, 14]	% Inhibiton, EGFR [3, 15]	% Inhibiton, EGFR [3, 16]	% Inhibiton, EGFR [3, 17]	% Inhibiton, CLK2 [4]	% Inhibition SRPK1 [5]	% Inhibition SGK3 [6]	% Inhibiton, MST1 ([7]; proteome HEL)	% Inhibiton, MST1 ([7]; proteome PC3)	% Inhibition SNRK [8]	% Inhibiton, LKB1 ([9]; proteome HEL)	% Inhibiton, LKB1 ([9]; proteome PC3)	% Inhibiton, p38a [10, 18]	% Inhibiton, p38a [10, 19]	% Inhibiton, p38a [10, 20]	% Inhibiton, p38a [10, 21]	further results
CCOc1cc(C(=O)N2CCC(N3CCN(C)CC3)CC2)ccc1Nc1ncc2c(n1)N(C1CCCC1)c1ccccc1C(=O)N2C [Compound 26]	10.9%	0.8%	19.8%	2%	-69.5%	-3.3%	-5.7%	-8.1%	9.1%	-25%	25.5%	15.9%	-17.2%	-6.9%	6.4%	-0.8%	-7.3%	55%	4.6%	-19%	% Inhibition PKN1 [11]: 15.3%
COc1cc(C(=O)N2CCC(N3CCN(C)CC3)CC2)ccc1Nc1ncc2c(n1)N(C1CCCC1)c1ccccc1C(=O)N2C [Compound 25, 11-cyclopentyl-2-((2-methoxy-4-(4-(4-methylpiperazin-1-yl)piperidine-1-carbonyl)phenyl)amino)-5-methyl-5H-benzo[e]pyrimido[5,4-b][1,4]diazepin-6(11H)-one]	11.8%	-7.0%	-3.0%	8.4%	-5.9%	-6.4%	-31.1%	-10.1%	-17.0%	-29.3%	8.2%	-9.9%	-0.157%	-15.7%	-0.266%	-4.1%	6.5%	12.6%	42.4%	-7.5%	% Inhibition PKN1 [11]: -2.7%
